Assay results reported in patent US20060111778A1, “Methods of promoting healing of cartilage defects and method of causing stem cells to differentiate by the articular chondrocyte pathway” (priority 2004, published 2006).

System: bone marrow-derived stem cells (MSCs)
Test: culture of bone marrow-derived stem cells (MSCs) with cartilage fragments, with or without TGF-β1
Type: cell-based, horse
Experimental: Bone marrow aspirates were obtained from the tuber coxae of 3 normal horses (3-years-old) to attain bone marrow-derived stem cells (MSCs). Aspirates were cultured in media, pre-plated for purification, and grown in monolayer culture flasks for 2-3 weeks until a confluent monolayer culture of MSCs was obtained. Confluent monolayers were expanded for another 2-3 weeks until a minimum of 26×10^6 cells were attained.
Cartilage was collected sterilely from the same horses and freeze-thawed 3 times to ensure all native cells within the cartilage were dead. Prior to the start of the experiment the cartilage was placed in liquid nitrogen and pulverized until it became a fine powder. Then the cartilage was weighed into aliquots to make 2.5% and 10% of cartilage weight to volume in media.
A 24-well, non-adherent plate contained treatment groups of 1×10^6 cells only, 1×10^6 cells with 2.5% cartilage, 1×10^6 cells with 10% cartilage, 2.5% cartilage only, and 10% cartilage only to make 5 treatment groups. The cells-only treatment group was the baseline positive control. The 2.5% and 10% cartilage fragments without cells served as the negative controls and, if necessary, for baseline values of proteoglycan and DNA content of the matrix provided. […]

Q: What does the source list for “TGF-β1: transforming growth factor β type 1, growth factor supplemented to media at 5 ng/ml”?
A: MSC survival and chondrogenesis: necessary; DNA content by day 14 (day 14, 5 ng/ml TGF-β1): significantly increasing
